Assay results: article PMC5513211, “PA-6 inhibits inward rectifier currents carried by V93I and D172N gain-of-function KIR2.1 channels, but increases channel protein expression” (Journal of Biomedical Science, 2017)
Substitutions are numbered along the chain they refer to. Where two headings read alike, the source gives them in different places.

Tests used:
Kv7.1 channel, V307L = settings: cited from earlier work
D172N KIR2.1 [1] = biological target: T1, D172N KIR2.1 (Homo sapiens, UniProt P63252, D172N); assay: Western blot of KIR2.1 expression, transiently transfected HEK293T cells, D172N; type: cell-based; settings: 24 h
T1 construct: expressed in transfected cells; host or cells: HEK293T
T1 sequence (P63252 1-427 D172N): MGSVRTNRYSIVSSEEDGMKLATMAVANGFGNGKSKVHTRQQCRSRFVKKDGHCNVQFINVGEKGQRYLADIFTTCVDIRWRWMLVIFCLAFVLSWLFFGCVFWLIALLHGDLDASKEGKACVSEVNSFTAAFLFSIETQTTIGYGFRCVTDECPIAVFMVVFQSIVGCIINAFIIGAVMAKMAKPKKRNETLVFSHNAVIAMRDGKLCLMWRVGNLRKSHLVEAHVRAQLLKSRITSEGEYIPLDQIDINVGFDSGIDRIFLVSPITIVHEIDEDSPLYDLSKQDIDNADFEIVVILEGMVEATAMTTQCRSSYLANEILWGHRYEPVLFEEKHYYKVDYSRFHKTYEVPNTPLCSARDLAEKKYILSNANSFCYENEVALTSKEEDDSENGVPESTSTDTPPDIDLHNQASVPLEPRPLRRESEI
Method: (§1) HEK293T cells were grown in 60 mm culture dishes containing 3 mL DMEM supplemented with 10% FCS, L-Glutamine and Pen-Strep, and transfected using linear polyethylenimine (PEI) (PolysciencesInc, Eppelheim, Germany) as described earlier. Cell lysates were prepared in buffer D (20 mM HEPES, 125 mM NaCl, 10% glycerol, 1 mM EDTA, 1 mM EGTA, 1 mM dithiothreitol, and 1% Triton X-100, pH 7.6, supplemented with 1 mM PMSF and 10 μg/mL aprotinin). 20 μg protein lysate was separated by 10% SDS-PAGE and blotted onto nitrocellulose membrane. Ponceau staining was used to reveal equal protein loading and subsequent quantification. Blots were blocked with 5% (v/v) […] in TBST (20 mM Tris-HCl pH 8.0, 150 mM NaCl, 0.05% (v/v) Tween-20) for 1 h at room temperature. KIR2.1 WT and mutants were detected by N-terminal KIR2.1 antibody (Santa Cruz Biotechnology, Dallas Tx, USA, cat. No. sc-18708) and peroxidase-conjugated donkey anti-goat secondary antibody (Jackson ImmunoResearch, West Grove, PA, cat. No. 705-035-003) followed by ECL detection procedure (GE Healthcare, Hoevelaken, The Netherlands). For quantification purposes, untransfected HEK293T cells were used as blank and protein levels were normalized to ponceau staining levels. Differences between group averages were tested by using a one-way ANOVA with a Bonferroni’s post-hoc test.

[2] = test system: WT, V93I and D172N KIR2.1 channels; assay: Immunofluorescence microscopy of KIR2.1 localization in MES-1 cells; type: cell-based, human; settings: 5 μM, 24 h
Method: HEK293T and MES-1 cells were cultured on pre-coated (0.1% gelatin) glass coverslips and transfected using Lipofectamin (Invitrogen, Breda, The Netherlands). Cell fixation, immunolabeling and imaging were performed exactly as described earlier. […] HEK293T cells were imaged by confocal microscopy using a Zeiss LSM 700 confocal microscope (Carl Zeiss Microscopy GmbH, Germany) equipped with a 63× oil immersion objective (NA 1.4). […] MES-1 cells were imaged using a conventional Nikon eclipse 80i light microscopy equipped with a 40× objective (NA 0.75).

WT KIR2.1 [3] = settings: 10 μM, cells stably expressing GFP-tagged KIR2.1; cited from earlier work
D172N KIR2.1 [4] = biological target: T1, D172N KIR2.1; assay: Inside-out patch clamp, ramp protocol, D172N KIR2.1 currents; type: cell-based; settings: inside-out mode; for IC50: HEK293T, 21 °C
From the text: (§2) Mutations V93I and D172N were engineered into a human KCNJ2-pcDNA3 expression construct, using the QuikChange II XL Site-Directed Mutagenesis Kit (Stratagene, La Jolla, CA) and custom designed primers. The presence of the introduced mutations was confirmed by Sanger sequencing.
(§3) HEK293T cells were transfected with WT, V93I or D172N constructs together with a GFP expression construct to enable detection of transfected cells. Inside-out patch clamp measurements were made using a HEKA EPC-10 Double Plus amplifier controlled by PatchMaster 2.10 software (HEKA, Lambrecht/Pfalz, Germany) at 21 °C. To record WT, V93I and D172N KIR2.1 currents, inside-out patch-clamp measurements were performed using a ramp protocol ranging from −100 to +100 mV in 5 s from a holding potential of −40 mV. Excised patches were placed in close proximity to the inflow region of the perfusion chamber. Bath solution contained 125 mM KCl, 4 mM EDTA (2K), 7.2 mM K2HPO4, 2.8 mM KH2PO4, pH 7.20/KOH. Pipette solution contained 145 mM KCl, 1 mM CaCl2, 5 mM HEPES, pH 7.40/KOH. Measurements were started following washout of polyamines/Mg^2+ from the channel pore observed by the disappearance of current rectification. For IC50 curves, fractional block at −80 and +50 mV was determined by dividing current levels obtained with PA-6 containing solutions by current levels of control traces recorded in the absence of PA-6.

D172N KIR2.1 [5] = biological target: T1, D172N KIR2.1; assay: Whole cell patch clamp, D172N KIR2.1 currents; type: cell-based; settings: whole cell mode
Method: as §2
(§4) Whole cell patch clamp measurements were done as described before using an AxoPatch 200B amplifier controlled by pClamp9 software (Molecular devices, Sunnyvale, CA, USA) at 21 °C. Whole cell IKIR2.1 measurements were performed by applying 1 s test pulses ranging between −120 and +30 mV, in 10 mV increments, from a holding potential of −40 mV, and with series resistance compensation of at least 70%. Steady state current at the end of the pulse was normalized to cell capacitance and plotted versus test potential (corrected for liquid junction potential). Extracellular solution contained 140 mM NaCl, 5 mM KCl, 1 mM CaCl2, 1 mM MgCl2, 6 mM glucose, 17.5 mM NaHCO3, 15 mM HEPES, pH 7.4/NaOH. Pipette solution contained 125 mM potassium gluconate, 10 mM KCl, 5 mM HEPES, 5 mM EGTA, 2 mM MgCl2, 0.6 mM CaCl2, 4 mM Na2ATP, pH 7.20/KOH.

V93I KIR2.1 [6] = biological target: T2, V93I KIR2.1 (Homo sapiens, UniProt P63252, V93I); assay: Western blot of KIR2.1 expression, transiently transfected HEK293T cells, V93I; type: cell-based; settings: 24 h
T2 construct: expressed in transfected cells; host or cells: HEK293T
T2 sequence (P63252 1-427 V93I): T1 sequence (P63252 1-427 D172N) with V93I, N172D
Method: as §1

[7] = test system: WT, V93I and D172N KIR2.1 channels; assay: Confocal immunofluorescence microscopy of KIR2.1 localization in HEK293T cells; type: cell-based, human; settings: 24 h, WT or mutant
Method: HEK293T and MES-1 cells were cultured on pre-coated (0.1% gelatin) glass coverslips and transfected using Lipofectamin (Invitrogen, Breda, The Netherlands). Cell fixation, immunolabeling and imaging were performed exactly as described earlier. Antibodies used were anti-KIR2.l (1:250; Santa Cruz Biotechnology, cat. no. sc-18708) and anti-Pan Cadherin (1:800, Sigma-Aldrich, St. Louis MO, USA, cat. No. C1821). HEK293T cells were imaged by confocal microscopy using a Zeiss LSM 700 confocal microscope (Carl Zeiss Microscopy GmbH, Germany) equipped with a 63× oil immersion objective (NA 1.4). Excitation was performed with an air-cooled Argon ion laser (LASOS, RMC 7812Z, 488 nm) for GFP and a HeNE (LASOS, SAN 7450A, 543 nm) laser for DyLight. MES-1 cells were imaged using a conventional Nikon eclipse 80i light microscopy equipped with a 40× objective (NA 0.75).

WT KIR2.1 [8] = biological target: T3, WT KIR2.1 (Homo sapiens, UniProt P63252); assay: Western blot of KIR2.1 expression, transiently transfected HEK293T cells, WT; type: cell-based; settings: 24 h
T3 construct: expressed in transfected cells; host or cells: HEK293T
T3 sequence (P63252 1-427): T1 sequence (P63252 1-427 D172N) with N172D
Method: as §1

WT KIR2.1 [9] = biological target: T3, WT KIR2.1; assay: Inside-out patch clamp, ramp protocol, WT KIR2.1 currents; type: cell-based; settings: inside-out mode, HEK293T, 21 °C
From the text: as §2, §3

V93I KIR2.1 [10] = biological target: T2, V93I KIR2.1; assay: Inside-out patch clamp, ramp protocol, V93I KIR2.1 currents; type: cell-based; settings: inside-out mode, HEK293T, 21 °C
From the text: as §2, §3

V93I KIR2.1 [11] = biological target: T2, V93I KIR2.1; assay: Whole cell patch clamp, V93I KIR2.1 currents; type: cell-based; settings: whole cell mode
Method: as §2, §4

WT KIR2.1 [12] = biological target: T3, WT KIR2.1; assay: Whole cell patch clamp, WT KIR2.1 currents; type: cell-based; settings: whole cell mode
Method: as §2, §4

IK1 / KIR2.1 ion channel = test system: IK1 / KIR2.1 ion channel; set-up: method as in PMID 23625347; settings: inside-out patch clamp methodology; read-out: IC50, IK1 inhibition; cited from earlier work
D172N KIR2.1 [13] = settings: read-out: IC50 (sensitivity for chloroquine); whole cell mode; cited from earlier work
WT KIR2.1 [14] = settings: read-out: IC50 (sensitivity for chloroquine); whole cell mode; cited from earlier work
[15] = test system: Kv11.1 (hERG) channel, WT and N558K; settings: N558K less sensitive than WT; cited from earlier work
[16] = at +50 mV, read-out: IC50, outward current
[17] = at −80 mV, read-out: IC50, inward current
[18] = at −50 mV, read-out: Inhibition of outward IK1
[19] = at −110 mV, read-out: Inhibition of inward IK1

Compound: CCS(=O)(=O)N(C)[C@H]1c2cc(C#N)ccc2OC(C)(C)[C@@H]1O [Chromanol293B]
- Increase of IC50 value by V307L mutation (Kv7.1 channel, V307L; V307L versus WT Kv7.1): 7 fold

Compound: N=C(Nc1ccc(OCCCCCOc2ccc(NC(=N)c3ccccc3)cc2)cc1)c1ccccc1 [PA-6]
- Increase of KIR2.1 expression level (D172N KIR2.1 [1]; 5 μM): 4.8 ± 2.0 fold
- Effect on KIR2.1 expression level at lower concentrations (D172N KIR2.1 [1]; 0.2 and 1 μM): did not result in significant increased expression
- Subcellular location of KIR2.1 channels [2]: resulted in intracellular accumulation
- Effect on WT KIR2.1 expression (WT KIR2.1 [3]): able to enhance expression of WT KIR2.1
- IC50 (D172N KIR2.1 [4]; [16]): 129 nM
- IC50 (D172N KIR2.1 [4]; [17]): 109 nM
- Sensitivity of D172N channels relative to WT and V93I (D172N KIR2.1 [4]): approximately two to three fold less sensitive
- inhibition at 1 µM (D172N KIR2.1 [5]; [18]): 10 ± 6%
- inhibition at 1 µM (D172N KIR2.1 [5]; [19]): 30 ± 10%
- inhibition at 3 µM (D172N KIR2.1 [5]; [18]): 86 ± 7%
- inhibition at 3 µM (D172N KIR2.1 [5]; [19]): 83 ± 1%
- IC50 (D172N KIR2.1 [5]): 1000 to 3000 nM
- Increase of KIR2.1 expression level (V93I KIR2.1 [6]; 5 μM): 3.9 ± 0.9 fold
- Effect on KIR2.1 expression level at lower concentrations (V93I KIR2.1 [6]; 0.2 and 1 μM): did not result in significant increased expression
- Subcellular location of KIR2.1 channels ([7]; 1 μM): induced an intracellular increase of the channel proteins in small aggregates
- Subcellular location of KIR2.1 channels ([7]; 5 μM): further increased the level of intracellular accumulation
- Increase of KIR2.1 expression level (WT KIR2.1 [8]; 5 μM): 6.3 ± 1.5 fold
- Effect on KIR2.1 expression level at lower concentrations (WT KIR2.1 [8]; 0.2 and 1 μM): did not result in significant increased expression
- IC50 (WT KIR2.1 [9]; [16]): 35.5 nM
- IC50 (WT KIR2.1 [9]; [17]): 52.9 nM
- IC50 (V93I KIR2.1 [10]; [16]): 43.6 nM
- IC50 (V93I KIR2.1 [10]; [17]): 58 nM
- inhibition at 1 µM (V93I KIR2.1 [11]; [18]): 18 ± 20%
- inhibition at 1 µM (V93I KIR2.1 [11]; [19]): 28 ± 14%
- inhibition at 3 µM (V93I KIR2.1 [11]; [18]): 77 ± 29%
- inhibition at 3 µM (V93I KIR2.1 [11]; [19]): 64 ± 4%
- IC50 (V93I KIR2.1 [11]): 1000 to 3000 nM
- inhibition at 1 µM (WT KIR2.1 [12]; [18]): 28 ± 36%
- inhibition at 1 µM (WT KIR2.1 [12]; [19]): 30 ± 16%
- inhibition at 3 µM (WT KIR2.1 [12]; [18]): 94 ± 6%
- inhibition at 3 µM (WT KIR2.1 [12]; [19]): 68 ± 15%
- IC50 (WT KIR2.1 [12]): 1000 to 3000 nM
- IC50 (IK1 / KIR2.1 ion channel): 14 nM

Compound: CCN(CC)CCCC(C)Nc1ccnc2cc(Cl)ccc12 (centres unmarked) [chloroquine]
- IC50 (D172N KIR2.1 [13]): 1200 to 3300 nM
- IC50 (WT KIR2.1 [14]): 1400 to 2400 nM

Compound: CC[C@H]1CN2CC[C@H]1C[C@@H]2[C@@H](O)c1ccnc2ccc(OC)cc12 [hydroquinidine]
- Difference in IC50 values for WT and N558K Kv11.1 channels [15]: 3.5 fold

Compound: OC(c1cc(C(F)(F)F)nc2c(C(F)(F)F)cccc12)C1CCCCN1 (centres unmarked) [mefloquine]
- Sensitivity of V307L Kv7.1 versus WT variant (Kv7.1 channel, V307L): equally sensitive
